From US20240207302A1, “ANTIVIRAL COMPOUNDS, METHODS FOR THE MANUFACTURING OF COMPOUNDS, ANTIVIRAL PHARMACEUTICAL COMPOSITION, USE OF THE COMPOUNDS AND METHOD FOR THE ORAL TREATMENT OF CORONAVIRUS INFECTION AND RELATED DISEASES THEREOF” (priority 2021, published 2024) come the findings set out here.

The structures appear in SMILES notation. pEC50: −log10 of the molar value. Like-named read-outs stand apart in the source and are kept apart here.

Data set [1] deals with SARS-COV-2. Kind of data set: SARS-COV-2 viral RNA synthesis in Vero cells (real time RT-PCR). Format: cell-based. On the technique in general: Quantitative PCR measures a nucleic acid by following its amplification.
Data set [2] relates to SARS-COV-2. Kind of data set: SARS-COV-2 viral RNA synthesis in HuH-7 cells (real time RT-PCR). The data set is classed as cell-based.
Data set [3] can be described thus: Cytotoxicity assay (XTT) in Huh-7 cells. Format: cell-based. The note with it: human.
Procedure: In parallel, cytotoxicity assays were performed. Monolayers of 1.5×10^4 cells in 96-well plates were treated for 3 days with various concentrations (semi-log dilutions from 1,000 to 10 μM) of the antiviral drugs. Then, 5 mg/mL 2,3-bis-(2-methoxy-4-nitro-5-sulfophenyl)-2H-tetrazolium-5-carboxanilide (XTT) in DMEM was added to the cells in the presence of 0.01% of N-methyl dibenzopyrazine methyl sulfate (PMS).
Data set [4] has as its system SARS-COV-2. Nature of the data set: Combination with SARS-COV-2 nsp14 (exonuclease) inhibitors in Calu-3 cells, infectious virus titers. The data set is classed as cell-based. The conditions noted are these: for EC99 mean / pEC50 / EC90: Calu-3, alone or in combination as labelled; for pEC50 / EC90: Severe acute respiratory syndrome coronavirus 2.
Data set [5] has as its system SARS-COV-2. Kind of data set: SARS-COV-2 viral RNA synthesis in Calu-3 cells (real time RT-PCR). Format: cell-based. The conditions noted are these: 1.0 μM.
Data set [6] is described as follows: Cytotoxicity assay (XTT) in Calu-3 cells. The data set is classed as cell-based, human. The conditions noted are these: human. As for the experimental part:
(§1) In parallel, cytotoxicity assays were performed.

Data set [7] concerns SARS-COV-2. The conditions noted are these: for SI: CC50/EC50.
Data set [8] concerns Salmonella typhimirium TA 97a, TA 98, TA 100, TA 102 and TA 1535. Kind of data set: Bacterial reverse mutation (Ames) test.
Data set [9] is described as follows: Cytotoxicity assay (XTT) in Vero cells. The conditions noted are these: African green monkey. The data set is classed as cell-based. As for the experimental part:
as §1
Background: Tetrazolium assays rely on reduction of a dye to a coloured formazan, in cell work by metabolically active cells.

The mark [10] stands for this setting: Calu-3, single moment treatment.
Setting [11] is: Table 6, Calu-3, daily treatment.
Setting [12] is: Table 6, Calu-3, single treatment.
The mark [13] stands for this setting: Severe acute respiratory syndrome coronavirus 2, Calu-3, 72 h, Calu-3 (MOI 0.5 72 h), daily treatment.
The mark [14] stands for this setting: Severe acute respiratory syndrome coronavirus 2, Calu-3, 72 h, Calu-3 (MOI 0.5 72 h), single moment treatment.
[15] abbreviates: Severe acute respiratory syndrome coronavirus 2, Calu-3, Table 6, Calu-3, daily treatment.
[16] abbreviates: Severe acute respiratory syndrome coronavirus 2, Calu-3, Table 6, Calu-3, single treatment.

For the compound `C/C(=C\CNc1ncnc2[nH]cnc12)CO` [MB-907, zeatin], the pEC50 in the data set on SARS-COV-2 [1] (Severe acute respiratory syndrome coronavirus 2, Vero, 24 h) was 5.22; in the data set on SARS-COV-2 [2] (Severe acute respiratory syndrome coronavirus 2, Huh-7, 48 h), 7.30. This compound also yielded a CC50 at 3 days in data set [3] of 600000 nM.
As to `COC(=O)N[C@H](C(=O)N1CCC[C@H]1C(=O)Nc1ccc([C@@H]2CC[C@@H](c3ccc(NC(=O)[C@@H]4CCCN4C(=O)[C@@H](NC(=O)OC)C(C)C)cc3)N2c2ccc(C(C)(C)C)cc2)cc1)C(C)C` [Ombitasvir], in the data set with SARS-COV-2 [4], the EC99 mean is 18 µM, the pEC50 is 6.40 and the EC90 came out at 3300 nM.
For `CC(C)OC(=O)[C@H](C)NP(=O)(OC[C@H]1O[C@@H](n2cnc3c(NCc4ccco4)ncnc32)[C@H](O)[C@@H]1O)Oc1ccccc1` (some centres unmarked) [MB-711, kinetin riboside monophosphoramidate], in the data set on SARS-COV-2 [5], the “inhibition of SARS-COV-2 RNA synthesis” value is “best profiles”. For the same compound, the cytotoxic concentration (CC50) at 3 days was found to be 580000 nM in data set [6] (Calu-3, daily treatment); 562000 nM in data set [6] (setting [10]); 580000 nM in data set [6] (setting [11]); 562000 nM in [6] (setting [12]). Besides, in the data set with SARS-COV-2 [4] (calu-3, drug 10 μM, raltegravir or dolutegravir 5 μM), the “effect of co-treatment with raltegravir or dolutegravir (iEXO) on inhibition of SARS-COV-2” value is recorded as “synergistic”. The SI in the data set with SARS-COV-2 [7] (Calu-3, daily treatment) was 58000 µM; in the data set on SARS-COV-2 [7] (setting [10]), 510; with SARS-COV-2 [7] (setting [11]), 58,000; in the data set with SARS-COV-2 [7] (setting [12]) it was 510. For the same compound, the pEC50 was 8.00 in the data set with SARS-COV-2 [7] (setting [13]), 5.96 with SARS-COV-2 [7] (setting [14]), 8.00 in the data set with SARS-COV-2 [7] (setting [15]) and 5.96 in the data set with SARS-COV-2 [7] (setting [16]). For the same compound, the EC90 was determined as 3800 nM in the data set on SARS-COV-2 [7] (setting [13]), 9200 nM in the data set with SARS-COV-2 [7] (setting [14]), 3800 nM in the data set with SARS-COV-2 [7] (setting [15]) and 9200 nM with SARS-COV-2 [7] (setting [16]).
Turning to `c1coc(CNc2ncnc3c2ncn3C2CCCCO2)c1` (centres unmarked) [MB-906], the “anti-coronavirus activity (SARS-COV-2 replication)” value in the data set with SARS-COV-2 [2] and in the data set on SARS-COV-2 [7] was “not endowed with anti-coronavirus activity” in each case.
For `[N-]=[N+]=[N-]` [sodium azide, reference compound], the Mutagenicity result is “+” in data set [8] (TA 100 −S9, positive control 1.5 μg/plate) and “+” in data set [8] (TA 1535 −S9, positive control 1.5 μg/plate).
`CCC(CC)COC(=O)[C@H](C)N[P@](=O)(OC[C@H]1O[C@@](C#N)(c2ccc3c(N)ncnn23)[C@H](O)[C@@H]1O)Oc1ccccc1` [Remdesivir, reference compound]: the pEC50 in the data set on SARS-COV-2 [1] (Severe acute respiratory syndrome coronavirus 2, Vero (MOI 0.01 24 h), read-out: EC50) is 6.15; with SARS-COV-2 [2] (Severe acute respiratory syndrome coronavirus 2, Huh-7 (MOI 0.1 48 h), read-out: EC50), 8.22; in the data set with SARS-COV-2 [4], 7.05; in the data set on SARS-COV-2 [7] (setting [13]), 8.00; with SARS-COV-2 [7] (setting [14]), 6.82; in the data set on SARS-COV-2 [7] (setting [15]) it was 8.00. The compound further showed a pEC50 in the data set on SARS-COV-2 [7] (setting [16]) of 6.82. Besides, the SI with SARS-COV-2 [1] (Vero, CC50/EC50) is 757; in the data set with SARS-COV-2 [2] (Huh-7, CC50/EC50), 46666; in the data set on SARS-COV-2 [7] (setting [10]), 2300; in the data set with SARS-COV-2 [7] (setting [11]), 3,3000; in the data set with SARS-COV-2 [7] (setting [12]), 2.300. For the same compound, the CC50 at 3 days in [9] is 530000 nM; in [3], 280000 nM; in data set [6] (setting [11]) it was 330000 nM; in [6] (setting [12]), 350000 nM. Further, the EC99 mean in the data set with SARS-COV-2 [4] worked out at 1.1 µM. The EC90 worked out at 400 nM in the data set on SARS-COV-2 [4]; 200 nM in the data set with SARS-COV-2 [7] (setting [13]); 400 nM with SARS-COV-2 [7] (setting [14]); 200 nM in the data set with SARS-COV-2 [7] (setting [15]); 400 nM in the data set with SARS-COV-2 [7] (setting [16]).
Regarding `Nc1ccc2cc3ccccc3cc2c1` [2-aminoanthracene, reference compound], the Mutagenicity entry was “+” in [8] (TA 102 +S9, positive control 5 μg/plate) and “+” in [8] (TA 1535 +S9, positive control 2.5 μg/plate).
For the compound `NC(=O)c1nc(F)c[nH]c1=O` [Favipiravir], the pEC50 in the data set with SARS-COV-2 [4] is 5.11.

The term pEC50 denotes the negative decadic logarithm of the EC50, by convention in mol/L. As usually defined, the CC50 is the concentration at which the toxic effect on the cells reaches its halfway point. Usually EC90 stands for the concentration at which the effect reaches the 90% level.
